The source of these data is patent US12103946B2, “Steroid compounds as Treg modulators and uses thereof” (New York University, priority 2018, dated 2024).

In general, logD refers to lipophilicity at a set pH, counting ionised and neutral species. A low value points to a more hydrophilic compound.

Data set [1] addresses T1, recombinant human RORγt ligand-binding domain (LBD) (Homo sapiens, UniProt P51449).
T1 sequence (P51449 269-508 limits assumed): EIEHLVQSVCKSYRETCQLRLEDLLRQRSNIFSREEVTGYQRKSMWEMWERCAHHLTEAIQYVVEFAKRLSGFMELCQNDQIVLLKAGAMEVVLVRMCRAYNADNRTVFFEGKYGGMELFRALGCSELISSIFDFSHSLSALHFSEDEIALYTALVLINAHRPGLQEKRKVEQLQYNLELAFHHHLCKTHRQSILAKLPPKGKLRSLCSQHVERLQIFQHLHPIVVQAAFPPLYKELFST
The experiment in a line: Microscale thermophoresis assay. Particulars: MST. The method, then: (§1) We next examined if 3-oxoLCA physically interacts with the RORγt protein in vitro. A microscale thermophoresis (MST) assay was performed with recombinant human RORγt ligand-binding domain (LBD). […] Next, we examined if 3-oxoLCA modulates the transcriptional activity of RORγt. We assayed the effect of the bile acids on firefly luciferase expression directed by a fusion protein of RORγt and Gal4-DBD (DNA-binding domain) in human embryonic kidney (HEK) 293 cells^14.
Microscale Thermophoresis Assay. The binding affinity of the compounds with RORγ ligand-binding domain (LBD) was analyzed by microscale thermophoresis (MST). Purified RORγ-LBD was labeled with the Monolith NT™ Protein Labeling Kit RED (NanoTemper Technologies). Serially-diluted compounds, with concentrations of 1 mM to 20 nM, were mixed with 55 nM labeled RORγ-LBD at room temperature and loaded into Monolith™ standard-treated capillaries. Binding was measured by monitoring the thermophoresis with 20% LED power and ‘Medium’ MST power on a Monolith NT.115 instrument (Nano Temper Technologies) with the following time setting: 5s Fluo, Before; 20s MST On; and 5s Fluo, After. Kd values were fitted using the NT Analysis software (Nano Temper Technologies).
(In general: In MST a laser heats a spot of the sample, and binding alters the fluorescence response.)

Data set [2] relates to naïve CD4+ T cells (Th17 differentiation, IL-17a). Description: In vitro Th17 differentiation, IL-17a staining by flow cytometry. The data set is classed as cell-based, mouse. Conditions: for Th17 cell differentiation (IL-17a): bile acids 20 μM, 3 days, IL-6 and TGF-β. The source says:
(§2) Our screen included both primary bile acids, synthesized by the host, and secondary bile acids, produced by bacterial modification of primary bile acids (FIG. 5). Naïve CD4^+ T cells were isolated from wild-type C57BL/6J (B6) mice and cultured with bile acids under Th17 differentiation conditions and, as a counter-screen, Treg differentiation conditions (FIG. 6).
(§3) In Vitro T Cell Culture. Naïve CD4^+ (CD62L^+ CD44^− CD25^− CD4^+) T cells were isolated from the spleens and the lymph nodes of mice of designated genotypes with FACS sorting. For certain experiments, naïve CD4^+ T cells were enriched using naïve CD4^+ T cell isolation kits (Miltenyi). Naïve CD4^+ T cells (40,000 cells) were cultured in a 96-well plate pre-coated with hamster IgG (MP Biomedicals) in T cell medium (RPMI, 10% fetal bovine serum, 25 mM glutamine, 55 μM 2-mercaptoethanol, 100 U/mL penicillin, […] streptomycin) supplemented with 0.25 μg/mL anti-CD3 (clone 145-2C11) and 1 μg/mL anti-CD28 (clone 37.51). For Th0 culture, T cells were cultured with the addition of 100 U/mL of IL-2 (PEPROTECH). For Th1 cell differentiation, T cells were cultured with the addition of 100 U/mL of IL-2, 10 μg/mL of anti-IL-4 (clone 11B11) and 10 ng/mL of IL-12 (PEPROTECH). For Th2 cell differentiation, T cells were cultured with the addition of 10 μg/mL of anti-IFNγ (clone XMG1.2) and 10 ng/mL of IL-4 (R&D Systems). For Th17 cell differentiation, T cells were cultured with the addition of 10 ng/mL of IL-6 (eBioscience) and 0.5 ng/mL of TGF-β (PEPROTECH). For Treg culture, T cells were cultured with the addition of 100 U/mL of IL-2 and various concentrations of TGF-β. […] Bile acids, retinoic acid (Sigma) or mitoQ (Focus Biomolecules), or mitoPQ (Sigma) were added either at 0 or 16 h time points. Compounds with low water solubility were sonicated before adding to the culture. Cells were harvested and assayed by flow cytometry on day 3. For ROS and mitochondrial membrane potential detection, cells cultured for 2 days were incubated with 5 μM of mitoSOX (ThermoFisher), 10 μM of DCFDA (Sigma) or 2 μM of JC-1 (ThermoFisher) for 30 min and assayed with flow cytometry.
(§4) Flow Cytometry. Cells harvested from in vitro culture or in vivo mice experiments were stimulated with 50 ng/mL PMA (Phorbol 12-myristate 13-acetate, Sigma) and 1 μM ionomycin (Sigma) in the presence of GolgiPlug (BD) for 4 h to determine cytokine expression. After stimulation, cells were stained with cell surface marker antibodies and LIVE/DEAD Fixable dye, Aqua, to exclude dead cells, fixed and permeabilized with a FoxP3/Transcription factor staining kit (eBioscience), followed by staining with cytokine- and/or transcription factor-specific antibodies. All flow cytometry analyses were performed on an LSR II flow cytometer (BD) and data were analyzed with FlowJo software (TreeStar).

The conditions of data set [3]: cited from earlier work.
A short description of data set [4]: Measurement of lipophilicity (octanol/ammonium bicarbonate partitioning, LC-MS). Conditions: n-octanol / 50 mM ammonium bicarbonate, pH 8.
Procedure: (§5) Measurement of lipophilicity. Partitioning Method: 2 μL of 10 mM stock solutions of each target compound was added to a 1 mL each of 50 mM ammonium bicarbonate (pH=8), and 1 mL of n-octanol in an Eppendorf tube. The resulting two-phase mixture was vortexed and then shaken for 18 h at 20° C. The two phases were then carefully separated into the aqueous sample (bottom layer), and organic sample (top-layer) and placed separately in autosampler vials and analyzed by LC-MS/MS. LC-MS Method: a Thermo q-Exactive Plus LC-MS equipped with an Ultimate 3000 HPLC was operated in negative ion mode after optimized to detect the [M− H]^− of the bile acids. […] A Dikma Inspire C8 column (3 μm particle size, 100 mm length, 4.6 mm ID) was used for analysis. Each injection was 5 μL, and a constant flow rate of 0.400 L/min was used. The gradient started at 0% B and was held constant for 2 minutes. Then the mobile phase composition was linearly changed to 100% B over 8 minutes and held at 100% for the following 5 minutes. The mobile phase composition was changed to 0% B over the following 0.1 minutes and the system was allowed to equilibrate to starting conditions over 1.9 minutes. Standards of all targets were used to establish retention times. Better than 2 ppm mass accuracy was obtained on all measurements. The LC-MS analysis was done in triplicate, while the partitioning was done once for each target's [M− H]^− ion. Calculation of log D: the total response of target in octanol was divided by the total response in the aqueous phase to get a partitioning coefficient. Then, log base 10 was taken and reported.
In data set [5] the test system is CD4+ T cells. Conditions: for cell viability: 3-day culture.
Text: Representative FACS plots of CD4^+ T cells cultured for 3 days and stained intracellularly for FoxP3 (e). Quantification of FoxP3^+ and viable T cells after 3-day culture (f) (n=2/group). n, number of biologically independent samples. Data are representative of two independent experiments (b, d). Data in (c) are shown as the mean±standard deviation.
Naïve CD4^+ T cells were isolated from FoxP3-IRES-GFP mice. d, Flow cytometry of CD4^+ T cells stained intracellularly for FoxP3. Naïve CD4^+ T cells isolated from WT, CNS1, CNS2 or CNS3 knockout mice (n=3/group) were cultured with anti-CD3/28 and IL-2, LCA (20 μM), TGF-β (0.05 ng/ml) and additional retinoic acid (RA; 1 ng/ml). e and f, Flow cytometry (e) and its quantification (f) of CD4^+ T cells stained intracellularly for FoxP3. […] Data are representative of two independent experiments (c, d). Data are shown as the mean±standard deviation by unpaired t-test with 2-tailed p-value.
as §4

The nature of data set [6]: physchem. Conditions: pH 8.
Procedure: as §5
In data set [7] the test system is fusion protein of RORγt and Gal4-DBD. The experiment in a line: RORγt luciferase reporter assay in HEK293 cells. In kind it is cell-based, human. Particulars: ML209 2 μM, bile acids 10 μM. The method, then:
Data are shown as the mean±standard deviation by unpaired t-test with 2-tailed p-value.
as §1

Data set [8] concerns naïve CD4+ T cells (Treg differentiation, FoxP3). Description: In vitro Treg differentiation, FoxP3 staining by flow cytometry. In kind it is cell-based, mouse. Conditions: for FoxP3 expression / Treg differentiation in cells lacking CNS3: CNS3 knockout cells.
Text: To determine if bile acids influence T cell functions, the present inventors performed a small-scale screening assay with a small molecule library comprising secondary bile acids with in vitro Treg differentiation as a read-out. Naïve CD4^+ T lymphocytes were sorted from wild-type B6 mice and cultured in the presence of a TCR stimulus, interleukin 2 (IL-2), and different amounts of TGFβ (optimized for Treg differentiation). Treg differentiation was quantified at the single cell level by staining with an antibody specific for FoxP3, followed by flow cytometry analysis. Retinoic acid, a known enhancer of Treg differentiation, was used as a positive control.
as §2, §3, §4
For orientation: Flow cytometry measures light scatter and fluorescence of single cells or particles in a stream.

Data set [9] concerns T cells. The experiment in a line: ROS, mitochondrial mass and membrane potential (mitoSOX, DCFDA, MitoTracker, JC-1). The data set is classed as cell-based, mouse. Particulars: 48 h. The method, then:
Chromatin obtained from DMSO- and isoalloLCA-treated WT cells was immunoprecipitated with IgG, anti-H3K27Ac, anti-P300, or anti-H3K4me1 antibodies, followed by real-time PCR analysis (n=3/group). Primers targeting FoxP3 promoter (Pro), CNS1, CNS2 and CNS3 region and hsp90 promoter were used for qPCR quantification. Relative enrichment was calculated as fold change relative to the ChIP signal at the FoxP3 promoter of the DMSO-treated control. d and e, Flow cytometry and quantification of CD4^+ T cells stained intracellularly for FoxP3. […] Their mitochondrial and cytoplasmic ROS were measured by mitoSOX (h) and 2′,7′-dichlorofluorescein diacetate (DCFDA) (i), respectively. Total mitochondria mass was measured by MitoTracker (j) and the mitochondrial membrane potential measured by JC-1 dye (k). MFIs of different treatments were normalized as fold changes to those of DMSO control (n=3/group).
In Vitro T Cell Culture. Naïve CD4^+ (CD62L^+ CD44^− CD25^− CD4^+) T cells were isolated from the spleens and the lymph nodes of mice of designated genotypes with FACS sorting. For certain experiments, naïve CD4^+ T cells were enriched using naïve CD4^+ T cell isolation kits (Miltenyi). […]

Read-outs that look alike come from different tables or passages of the source.

`C[C@H](CCC(=O)O)[C@H]1CC[C@H]2[C@@H]3[C@H](O)C[C@@H]4CC(=O)CC[C@]4(C)[C@H]3C[C@H](O)[C@]12C` [3-oxoCA, 3-oxocholic acid, reference compound]: the “Kd relative to 3-oxoLCA” value in data set [1] was around 20 times. Besides, in [2], the “Th17 cell differentiation (IL-17a)” value was “Neither 3-oxoCA nor 3-oxoDCA inhibited Th17 cell differentiation as robustly as 3-oxoLCA”.

For `C[C@H](CCC(=O)O)[C@H]1CC[C@H]2[C@@H]3CC[C@@H]4CC(=O)CC[C@]4(C)[C@H]3C[C@H](O)[C@]12C` [3-oxoDCA, 3-oxodeoxycholic acid, reference compound], the “Kd relative to 3-oxoLCA” value in data set [1] is given as around 20 times. Besides, the “Th17 cell differentiation (IL-17a)” value in data set [2] is on record as “Neither 3-oxoCA nor 3-oxoDCA inhibited Th17 cell differentiation as robustly as 3-oxoLCA”.

As to `C[C@H](CCC(=O)O)[C@H]1CC[C@H]2[C@@H]3[C@H](O)C[C@@H]4C[C@H](O)CC[C@]4(C)[C@H]3CC[C@]12C` [CDCA, Chenodeoxycholic acid], in data set [3], the “Log D (pH = 8.0), previously reported” value is listed as 2.2.

The compound `C[C@H](CCC(=O)O)[C@H]1CC[C@H]2[C@@H]3CC[C@@H]4C[C@H](O)CC[C@]4(C)[C@H]3C[C@H](O)[C@]12C` [DCA, Deoxycholic acid] had a logD at 18 h in [4] of 2.7.

Consider `C[C@H](CCC(=O)NCC(=O)O)[C@H]1CC[C@H]2[C@@H]3CC[C@H]4C[C@@H](O)CC[C@]4(C)[C@H]3CC[C@]12C` [Glyco-isoalloLCA], for which the “cytotoxicity compared to isoalloLCA” value in [5] (10 or 20 μM) is listed as “enhanced cytotoxicity at 10 or 20 μM compared to isoalloLCA”.

The compound `C[C@H](CCC(=O)O)[C@H]1CC[C@H]2[C@@H]3CC[C@@H]4C[C@H](O)CC[C@]4(C)[C@H]3CC[C@]12C` [LCA, Lithocholic acid] registered a logD at 18 h in [6] of 3.6.

Take `COc1cc(O)c(C(CC(=O)N2C[C@H](C)C[C@H](C)C2)c2ccc3c(c2)OCO3)c(OC)c1` (stereo partly shown) [ML209, reference compound]: the RORγt reporter activity result in data set [7] is given as “completely lost RORγt activity”.

With `CC[C@H]1[C@@H](O)[C@@H]2[C@H](CC[C@]3(C)[C@@H]([C@H](C)CCC(=O)O)CC[C@@H]23)[C@@]2(C)CC[C@@H](O)C[C@@H]12` [OCA, Obeticholic acid], the pH-dependent lipophilicity (logD) at 18 h in [4] stood at 2.5.

On to `C[C@H](CCC(=O)O)[C@H]1CC[C@H]2[C@@H]3[C@@H](O)C[C@@H]4C[C@H](O)CC[C@]4(C)[C@H]3CC[C@]12C` [UDCA, Ursodeoxycholic acid], for which the “Log D (pH = 8.0), previously reported” value in [3] was 2.2.

As for `C[C@H](CCC(=O)O)[C@H]1CC[C@H]2[C@@H]3CC[C@H]4C[C@H](O)CC[C@]4(C)[C@H]3CC[C@]12C` [alloLCA, Allolithocholic acid], the “Log D (pH = 8.0)” value came out at 3.5.

With `CCNC(=O)C[C@@H]1N=C(c2ccc(Cl)cc2)c2cc(OC)ccc2-n2c(C)nnc21` [iBET, reference compound], the “effect on isoalloLCA-dependent enhancement of FoxP3” value in [8] (isoalloLCA 20 μM, TGF-β 0.05 ng/mL) is recorded as “prevented isoalloLCA-dependent enhancement of FoxP3 in a dose-dependent manner”.

In data set [6], `C[C@H](CCC(=O)O)[C@H]1CC[C@H]2[C@@H]3CC[C@@H]4C[C@@H](O)CC[C@]4(C)[C@H]3CC[C@]12C` [isoLCA, Isolithocholic acid] displayed a pH-dependent lipophilicity (logD) at 18 h of 3.5.

On to `C[C@H](CCC(=O)O)[C@H]1CC[C@H]2[C@@H]3CC[C@H]4C[C@@H](O)CC[C@]4(C)[C@H]3CC[C@]12C` [isoalloLCA, Isoallolithocholic acid], for which the log distribution coefficient (logD) at 18 h in data set [6] amounted to 2.2. Also, the “reduction of Th17 cell differentiation” value in data set [2] (20 μM) is around 50%. Moreover, the cell viability entry is “do not significantly affect cell proliferation, cell viability” in [5] and “did not impair cell viability” in data set [5] (listed as IsoalloLCA).

With `C[n+]1ccc(-c2cc[n+](CCCCCCCCCC[P+](c3ccccc3)(c3ccccc3)c3ccccc3)cc2)cc1.[I-].[I-].[I-]` [mitoPQ, mitoParaquat, reference compound], the “FoxP3 expression / Treg differentiation in cells lacking CNS3” value in data set [8] is “required the CNS3 enhancer and TGF-β”. The “Treg differentiation (FoxP3 expression)” value in data set [8] (bile acids 20 μM, 3 days, anti-CD3/28, IL-2) was “sufficient to enhance mitoROS production and Treg differentiation in a dose-dependent manner”. Moreover, in data set [9], the “mitochondrial ROS (mitoROS) production” value was “sufficient to enhance mitoROS production”.

Consider TGF-β: cytokine used for Treg culture, for which the “FoxP3 expression / Treg differentiation in cells lacking CNS3” value in [8] is “boosted Treg differentiation in CNS3-deficient cells, albeit with reduced efficiency”.
